From PMC6911004, “Fragment-based screening identifies molecules targeting the substrate-binding ankyrin repeat domains of tankyrase” (Scientific Reports, 2019) come the findings set out here.

Structures are written as SMILES.

Test [1] addresses T1, TNKS2 ARC5 (Homo sapiens, UniProt Q9H2K2).
T1 construct: followed by TNKS2 ARC5 (1 μL, 100 μM stock); His6-GST; made in house; host or cells: E. coli
The test is described as follows: T2 relaxation-edited ligand-observed NMR assay. Type of test: binding. To be noted: DSF hit validation. The text has this:
39 hits from the DSF screen were suitable for follow-up by ligand-observed NMR methods. We re-purchased fragments and performed T2 relaxation-edited (CPMG-edited) and waterLOGSY experiments for each fragment with TNKS2 ARC5. We explored saturation transfer difference (STD) NMR, also using TNKS2 ARC5, but the assay was not sensitive enough to produce a reliable binding signal, likely due to the relatively small size of a single ARC protein (data not shown). High ligand concentrations were required to achieve sufficient signal, which in turn could lead to false-positive hits due to non-specific binding.
Using the relaxation-edited assay, we tested each fragment in three independent measurements (Fig. 2C), unless we obtained two negative results (non-binding) in the first two experiments. […] As a negative NOE for the compound-only sample could indicate aggregation, we flagged these compounds as potentially problematic. We identified 14 fragments that bound to TNKS2 ARC5 by both relaxation-edited and waterLOGSY methods (0.78% hit rate). We next tested whether binding of these fragments occurred competitively with the 3BP2 TBM peptide, and also if they bound to TNKS2 ARC4, as competition with peptide binders at various different ARCs will be a prerequisite for an efficient substrate binding antagonist. Three fragments (1, 2, 3) bound to both TNKS2 ARC4 and ARC5 and were competitive with the TBM peptide (0.16% hit rate) (Fig. 2E). Three further fragments also bound to both ARCs, but were not TBM competitive by NMR.
Fragments were dispensed in duplicate into a 384-well plate (250 nL, 100 mM stock in DMSO). Wells were backfilled with DMSO (2.25 μL). Tankyrase ARC protein (47.5 μL in 25 mM HEPES, pH 7.5, 100 mM NaCl, 2 mM TCEP, 10% D2O; 20 μM final protein concentration in the assay) was added to the ‘protein’ samples; buffer only (47.5 μL) was added to the ‘compound-only’ samples. Solutions were transferred to 1.7 mm NMR tubes using a Gilson liquid handling system. ^1H NMR spectra were recorded, with the DMSO and water signals dampened. A relaxation spin filter was applied at 400 ms[65]. Data were processed using Bruker Topspin 3.14. Lines were broadened with LB = 3.0, and the baseline was corrected between 6.0–10.0 ppm. The average integral for all peaks between 6.0–10.0 ppm was calculated, and the difference between compound-only and compound-plus-protein samples was compared. A reduction in signal integrals of ≥15% was classified as a hit. For competitive experiments, 3BP2 16-mer peptide (100 μM) was added, and the spectra were recorded and processed as above. The variability in signal reduction in the relaxation-edited experiment was previously determined as approximately ± 10% (Liu et al., unpublished observations).

Test [2] deals with T2, TNKS2 ARC4 aromatic glycine sandwich (YY536/569AA) (Homo sapiens, UniProt Q9H2K2, Y536A/Y569A).
T2 construct: TNKS2 ARC4 (488–649); His6-GST; made in house; host or cells: E. coli BL21-CodonPlus (DE3)-RIL
The test is described as follows: T2 relaxation-edited NMR with mutant ARC. Type of test: binding. An excerpt:
We used three previously designed TNKS2 ARC4 mutant variants[4] to explore potential binding determinants for fragment 9. A WFE591/593/598AAA triple-mutation abrogates three key residues in the “arginine cradle”; YY536/569AA truncates two tyrosine residues that form the “glycine sandwich”, and L560W introduces a bulky residue into the “central patch” that sterically clashes with the TBM peptide (see Fig. 5A,B for locations of the mutated residues). We tested binding of compound 9 to the wild-type and mutant ARCs by ligand-observed NMR, using the relaxation-edited assay (Fig. 5C, Table 4). […] Binding was impaired but not abolished for the “central patch” mutant variant (L560W).
Fragments were dispensed in duplicate into a 384-well plate (250 nL, 100 mM stock in DMSO). […] Solutions were transferred to 1.7 mm NMR tubes using a Gilson liquid handling system. ^1H NMR spectra were recorded, with the DMSO and water signals dampened. […] The average integral for all peaks between 6.0–10.0 ppm was calculated, and the difference between compound-only and compound-plus-protein samples was compared. […] For competitive experiments, 3BP2 16-mer peptide (100 μM) was added, and the spectra were recorded and processed as above. The variability in signal reduction in the relaxation-edited experiment was previously determined as approximately ± 10% (Liu et al., unpublished observations).

Consider `O=C(NCc1ccco1)c1ccc(F)cc1` [compound 3], for which the “binding to TNKS2 ARC5 by ligand-observed NMR, in words” value in test [1] (relaxation-edited and waterLOGSY) was “bound”. For the same compound, the “competition with the 3BP2 TBM peptide by relaxation-edited NMR” value in test [1] (ARC used for competition not given) is “competitive”.
Regarding `O=C(NCc1ccco1)c1ccc2nccnc2c1` [compound 9], the “T2 relaxation-edited: reduction of signal integrals” value in test [2] is 0%.
